# Source: patent US7208526B2, “Styrylsulfonamides” (Hoffmann-La Roche Inc., priority 2005, dated 2007)
# Structures can show the parent of a compound that is named as a salt.
# Test system: HCT 116 cells (human colon carcinoma, ATCC-No. CCl-247)
# Assay: Viability assay in HCT 116 cells (CellTiter-Glo Luminescent Cell Viability Assay)
# Type: cell-based
# Conditions: 10 concentrations 30 μM to 0.0015 μM, incubation 120 h (5 days), luminescence (ATP), triplicate
# Description: Viability Assay in HCT 116 Cells
# This assay is a homogeneous method of determining the number of viable cells in culture based on quantitation of the ATP present, an indicator of metabolically active cells. The assay is designed for use with multiwell formats, making it ideal for automated high-throughput screening (HTS), cell proliferation and cytotoxicity assays. The homogeneous assay procedure involves adding a single reagent (containing luciferase, luciferan substrate, and buffer) directly to cells cultured in serum-supplemented medium. Cell washing, removal of medium and multiple pipetting steps are not required. The system detects as few as 15 cells/well in a 384-well format in 10 minutes after adding reagent and mixing.
# The homogeneous “add-mix-measure” format results in cell lysis and generation of a luminescent signal proportional to the amount of ATP present. The amount of ATP is directly proportional to the number of cells present in culture. The above-referenced assay generates a “glow-type” luminescent signal, produced by the luciferase reaction, which has a half-life generally greater than five hours, depending on cell type and medium used. The extended half-life eliminates the need to use reagent injectors and provides flexibility for continuous or batch mode processing of multiple plates. The unique homogeneous format avoids errors that may be introduced by other ATP measurement methods that require multiple steps.
# For the assay the cells were seeded in 384 well plates, 1000 cells per well, in the same medium. […] After 5 days the viability assay was done according to the instructions of the manufacturer. In brief: the cell-plate was equilibrated to room temperature for approximately 30 minutes and then reagent (containing luciferase, luciferan substrate, and buffer) was added. The contents were carefully mixed for 15 minutes to induce cell lysis. After 45 minutes the luminescent signal was measured in Victor 2, (scanning multiwell spectrophotometer, Wallac).
# In order to achieve a final concentration of 30 μM as highest concentration […] of 10 mM compound stock solution were added directly to 163 μl media. Then step e) of the dilution procedure described below, was followed.
# Analysis: • Add 30 μl of reagent containing luciferase, luciferan substrate, and buffer per well, • shake 15 minutes at room temperature • incubate further 45 minutes at room temperature without shaking
# Measurement: • Victor 2 scanning multiwell spectrophotometer (Wallac), Luminescence mode (0.5 sec/read, 477 nm) • Determine IC50 using a non-linear curve fit (XLfit® software [ID Business Solution Ltd., Guilford, Surrey, UK])
row,SMILES,IC50
1,"O=C(NS(=O)(=O)/C=C/c1ccc(OC(F)(F)F)cc1)c1ccc(F)cc1Br [Example 4-22, (E)-2-(4-Trifluoromethoxyphenyl)-ethenesulfonic acid 2-bromo-4-fluoro-benzoylamide; sodium salt]",0.5 to 15 µM
2,"COc1cccc(/C=C/S(=O)(=O)NC(=O)c2ccc(Br)cc2Cl)c1 [Example 4-25, (E)-2-(3-Methoxy-phenyl)-ethenesulfonic acid 4-bromo-2-chloro-benzoylamide; sodium salt]",0.5 to 15 µM
3,"O=C(NS(=O)(=O)/C=C/c1ccccc1Cl)c1ccc(Br)cc1Cl [Example 4-28, (E)-2-(2-Chloro-phenyl)-ethenesulfonic acid 4-bromo-2-chloro-benzoylamide; sodium salt]",0.5 to 15 µM
4,"COc1ccccc1/C=C/S(=O)(=O)NC(=O)c1ccc(C)cc1C [Example 4-31, (E)-2-(2-Methoxy-phenyl)-ethenesulfonic acid 2,4-dimethyl-benzoylamide; sodium salt]",0.5 to 15 µM
5,"Cc1ccc(C(=O)NS(=O)(=O)/C=C/c2ccc(Cl)c(Cl)c2)c(C)c1 [Example 4-34, (E)-2-(3,4-Dichloro-phenyl)-ethenesulfonic acid 2,4-dimethyl-benzoylamide; sodium salt]",0.5 to 15 µM
6,"Cc1cc(Br)ccc1C(=O)NS(=O)(=O)/C=C/c1ccc(C(F)(F)F)cc1 [Example 4-35, (E)-2-(4-Trifluoromethyl-phenyl)-ethenesulfonic acid 4-bromo-2-methyl-benzoylamide; sodium salt]",0.5 to 15 µM
7,"Cc1ccc(C(=O)NS(=O)(=O)/C=C/c2ccc(OC(F)(F)F)cc2)c(Br)c1 [Example 4-37, (E)-2-(4-Trifluoromethoxyphenyl)-ethenesulfonic acid 2-bromo-4-methyl-benzoylamide; sodium salt]",0.5 to 15 µM
8,"Cc1ccc(C(=O)NS(=O)(=O)/C=C/c2ccc(C(F)(F)F)cc2)c(C)c1 [Example 4-40, (E)-2-(4-Trifluoromethyl-phenyl)-ethenesulfonic acid 2,4-dimethyl-benzoylamide; sodium salt]",0.5 to 15 µM
9,"COc1cc(Br)ccc1C(=O)NS(=O)(=O)/C=C/c1ccccc1 [Example 5-1, (E)-2-Phenyl-ethenesulfonic acid 4-bromo-2-methoxy-benzoylamide]",0.5 to 15 µM
10,"Cc1ccc(C(=O)NS(=O)(=O)/C=C/c2ccccc2)c(C(F)(F)F)c1 [Example 5-2, (E)-2-Phenyl-ethenesulfonic acid 4-methyl-2-trifluoromethyl-benzoylamide]",0.5 to 15 µM
11,"COc1cc(F)ccc1C(=O)NS(=O)(=O)/C=C/c1ccccc1 [Example 5-3, (E)-2-Phenyl-ethenesulfonic acid 4-fluoro-2-methoxy-benzoylamide]",0.5 to 15 µM
12,"O=C(NS(=O)(=O)/C=C/c1ccccc1)c1ccc(Cl)cc1Br [Example 5-4, (E)-2-Phenyl-ethenesulfonic acid 2-bromo-4-chloro-benzoylamide]",0.5 to 15 µM
13,"COc1cc(C(F)(F)F)ccc1C(=O)NS(=O)(=O)/C=C/c1ccccc1 [Example 5-6, (E)-2-Phenyl-ethenesulfonic acid 2-methoxy-4-trifluoromethyl-benzoylamide]",0.5 to 15 µM

# Second part, the molecule after the results:
row,IC50,SMILES
1,0.5 to 15 µM,"COc1cc(Cl)ccc1C(=O)NS(=O)(=O)C=Cc1ccccc1 [Example 6-1, 2-Phenyl-ethenesulfonic acid 4-chloro-2-methoxy-benzoylamide]"
2,0.5 to 15 µM,"O=C(NS(=O)(=O)/C=C/c1ccccc1)c1ccc(F)cc1Br [Example 6-2, (E)-2-Phenyl-ethenesulfonic acid 2-bromo-4-fluoro-benzoylamide; sodium salt]"
3,0.5 to 15 µM,"Cc1ccc(C(=O)NS(=O)(=O)/C=C/c2ccccc2)c(Br)c1 [Example 6-3, (E)-2-Phenyl-ethenesulfonic acid 2-bromo-4-methyl-benzoylamide; sodium salt]"
4,0.5 to 15 µM,"O=C(NS(=O)(=O)/C=C/c1ccccc1)c1ccc(Br)cc1Cl [Example 6-5, (E)-2-Phenyl-ethenesulfonic acid 4-bromo-2-chloro-benzoylamide; sodium salt]"
5,0.5 to 15 µM,"Cc1cc(Cl)ccc1C(=O)NS(=O)(=O)/C=C/c1ccccc1 [Example 6-6, (E)-2-Phenyl-ethenesulfonic acid 4-chloro-2-methyl-benzoylamide; sodium salt]"
